Results reported in publication PMC9645662, “Dual role of an essential HtrA2/Omi protease in the human malaria parasite: Maintenance of mitochondrial homeostasis and induction of apoptosis-like cell death under cellular stress” (PLOS Pathogens, 2022).

Biological target: T1, PfHtrA2 (HtrA2/Omi serine protease) (Plasmodium falciparum, UniProt A0A143ZXD4)
T1 construct: gene PF3D7_0812200; protease domain (135–290 aa; HtrA2-protease), histidine-tagged, expressed in E. coli
T1 sequence (A0A143ZXD4 135-290): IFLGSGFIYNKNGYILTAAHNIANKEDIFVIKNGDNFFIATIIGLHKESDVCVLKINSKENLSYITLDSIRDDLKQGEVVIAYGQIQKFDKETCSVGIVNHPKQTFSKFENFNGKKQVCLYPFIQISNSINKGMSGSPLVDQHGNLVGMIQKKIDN
Test: fluorogenic protease activity assay of the recombinant protease domain, concentration-dependent inhibition
Type: biochemical

O=C1C(=Cc2ccc(-c3ccccc3[N+](=O)[O-])o2)C(=O)N(c2ccccc2)C(=S)N1c1ccccc1 [ucf-101]
IC50: 8.1 µM
